{
  "source": "patent US6391879B1",
  "about": "“Therapeutic anti-fungal nail preparation” (Astan, Inc., priority 1998, dated 2002)",
  "test_system": "fungi in Onychomycosis and tinea pedis",
  "test": "Tolnaftate solution concentration sufficient to kill the fungi",
  "conditions": "used in a penetrating base",
  "from_the_text": "Tolnaftate USP (known by the trade name Tinactin ™) is a white crystalline powder that has been used as a primary agent in anti-fungal preparations. […] Other anti-fungal agents effective in fighting the fungi causing Onychomycosis and tinea pedis and suitable for use in the present invention are: Clotrimazole, Tioconazole, Nystatin, Terconazole, Butoconazole Nitrate, Unecylenic Acid, Clioquinol, Ciclopirox, Olamine, Econazole Nitrate, Triacetin, Miconazole, Flucytosine, and Ketoconazole.",
  "data": [
    {"smiles": "Cc1cccc(N(C)C(=S)Oc2ccc3ccccc3c2)c1", "note": "[Tolnaftate]", "values": [
      {"measurement": "solution concentration sufficient to kill the fungi", "value": 1, "unit": "%"}
    ]}
  ]
}
